One assay has as its target CSF-1R (Homo sapiens, UniProt P07333). Description: Peptide (non-phosphorylated) assay: fluorescence polarization competition immunoassay of CSF-1R phosphorylation of synthetic CSF-1R555-568 peptide. The following applies: 0.7 nM CSF-1R, 308 μM […], 1 mM ATP, 5 mM MgCl2, 80 min room temperature; mean of at least three determinations; read-out: c-fms Peptide IC50. In kind it is biochemical. As for the experimental part:
Peptide (Non-Phosphorylated) Assay
The kinase reaction was initiated by adding 1 μL of 10 mM ATP in assay buffer. […] Positive and negative control wells were included on each plate, where 4% DMSO in assay buffer was substituted for the compound; in addition, positive control wells received 1.2 μL of 50 mM EDTA before the start of the reaction.
The plates were covered and incubated at room temperature for 80 min. Reactions were stopped by addition of 1.2 μL of 50 mM EDTA. Each well then received 10 μL of a 1:1:3 mixture of 10× anti-phosphotyrosine antibody, 10×PTK green tracer, and FP dilution buffer, respectively (Cat. # P2837, Invitrogen, Carlsbad, Calif.). The plates were covered, incubated for 30 min at room temperature, and the fluorescence polarization was read on an Analyst plate reader (Molecular Devices).

The next assay deals with c-fms (Homo sapiens, UniProt P07333). Description: c-fms autophosphorylation, fluorescence polarization competition immunoassay. The following applies: 10 nM c-fms, 1 mM ATP, 5 mM MgCl2, 45 min room temperature; averages of three independent measurements; read-out: c-fms Autophosphorylation IC50. The class given is biochemical. How it is done:
Autophosphorylation, Fluorescence Polarization Competition Immunoassay
The assay buffer used was 100 mM 4-(2-hydroxyethyl)piperazine 1-ethanesulfonic acid (HEPES), pH 7.5, 1 mM 1,4-dithio-DL-threitol (DTT), 0.01% (v/v) Tween-20. Compounds were diluted in assay buffer containing 4% dimethylsulfoxide (DMSO) just prior to the assay. […] The kinase reaction was initiated by adding 2 μL of 5 mM ATP (Sigma) in assay buffer. The final concentrations in the assay were 10 nM c-fms, 1 mM ATP, 5 mM MgCl2, 2% DMSO. Control reactions were ran in each plate: in positive and negative control wells, assay buffer (made 4% in DMSO) was substituted for the compound; in addition, positive control wells received 1.2 μL of 50 mM ethylenediaminetetraaceticacid (EDTA).
The plates were incubated at room temperature for 45 min. At the end of the incubation, the reaction was quenched with 1.2 μL of 50 mM EDTA (EDTA was not added to the positive control wells at this point; see above). Following a 5-min incubation, each well received 10 μL of a 1:1:3 mixture of anti-phosphotyrosine antibody, 10×, PTK green tracer, 10× (vortexed), FP dilution buffer, respectively (all from PanVera, cat. # P2837). The plate was covered, incubated for 30 min at room temperature and the fluorescence polarization was read on the Analyst.
The IC50 values shown in Table 1 are averages of three independent measurements.
For orientation: Fluorescence polarisation rises when a labelled molecule tumbles more slowly, as on binding a larger partner.

Bounds are passed on as bounds.

Sequence of CSF-1R (P07333 20-972): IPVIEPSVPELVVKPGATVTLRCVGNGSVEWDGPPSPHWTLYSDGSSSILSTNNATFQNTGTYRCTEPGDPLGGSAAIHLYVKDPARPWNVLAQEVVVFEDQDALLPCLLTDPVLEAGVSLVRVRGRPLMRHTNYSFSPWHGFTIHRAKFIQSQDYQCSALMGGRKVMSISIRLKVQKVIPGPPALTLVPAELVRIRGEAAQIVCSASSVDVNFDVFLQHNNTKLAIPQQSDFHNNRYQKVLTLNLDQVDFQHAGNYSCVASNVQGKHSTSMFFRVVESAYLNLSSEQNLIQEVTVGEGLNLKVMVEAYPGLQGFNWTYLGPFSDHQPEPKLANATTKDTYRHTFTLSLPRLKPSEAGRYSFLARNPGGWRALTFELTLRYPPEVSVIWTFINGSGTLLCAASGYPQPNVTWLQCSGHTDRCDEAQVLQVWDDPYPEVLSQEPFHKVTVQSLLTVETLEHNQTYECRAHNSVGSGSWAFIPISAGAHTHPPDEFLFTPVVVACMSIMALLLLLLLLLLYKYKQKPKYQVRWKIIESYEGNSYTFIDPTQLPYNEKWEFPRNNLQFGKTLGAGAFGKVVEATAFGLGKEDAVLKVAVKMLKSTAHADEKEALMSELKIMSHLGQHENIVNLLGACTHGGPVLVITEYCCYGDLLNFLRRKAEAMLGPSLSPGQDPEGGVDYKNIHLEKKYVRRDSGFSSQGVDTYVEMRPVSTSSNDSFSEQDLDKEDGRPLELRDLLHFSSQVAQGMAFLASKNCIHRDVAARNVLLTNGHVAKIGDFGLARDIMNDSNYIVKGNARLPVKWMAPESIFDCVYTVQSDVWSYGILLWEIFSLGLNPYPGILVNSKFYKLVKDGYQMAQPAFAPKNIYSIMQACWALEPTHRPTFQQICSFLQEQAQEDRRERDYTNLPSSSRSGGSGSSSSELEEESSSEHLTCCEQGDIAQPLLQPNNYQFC
Sequence of c-fms (P07333 20-972): as above

Turning to `CN1CCN(c2ccc(Nc3ncc4c(=O)c(C(N)=O)cn(-c5ccc6c(c5)CCC6)c4n3)cc2)CC1` [Cpd 7, 8-Indan-5-yl-2-[4-(4-methyl-piperazin-1-yl)-phenylamino]-5-oxo-5,8-dihydro-pyrido[2,3-d]pyrimidine-6-carboxylic acid amide], the IC50 worked out at 3.9 nM on CSF-1R and 13 nM on c-fms.
Taken in the same sequence, the figures for `CN(C)CC(O)COc1ccc(Nc2ncc3c(=O)c(C(N)=O)cn(-c4ccc5c(c4)CCC5)c3n2)cc1` (stereo not drawn) [Cpd 10, 2-[4-(3-Dimethylamino-2-hydroxy-propoxy)-phenylamino]-8-indan-5-yl-5-oxo-5,8-dihydro-pyrido[2,3-d]pyrimidine-6-carboxylic acid amide] were 2.7 nM and 13 nM.
Taken in the same sequence, the figures for `CNC(=O)c1cn(-c2ccc3c(c2)CCC3)c2nc(Nc3ccc(OCC(O)CN(C)C)cc3)ncc2c1=O` (stereo not drawn) [Cpd 11, 2-[4-(3-Dimethylamino-2-hydroxy-propoxy)-phenylamino]-8-indan-5-yl-5-oxo-5,8-dihydro-pyrido[2,3-d]pyrimidine-6-carboxylic acid methylamide] were 5.6 nM and 46 nM.
On the same counts, the results for `CN(C)c1cccc(Nc2ncc3c(=O)c(C(N)=O)cn(-c4ccc5c(c4)CCC5)c3n2)c1` [Cpd 16, 2-(3-Dimethylamino-phenylamino)-8-indan-5-yl-5-oxo-5,8-dihydro-pyrido[2,3-d]pyrimidine-6-carboxylic acid amide] are 4.3 nM and 12 nM.
Turning to `CN1CCN(Cc2cccc(Nc3ncc4c(=O)c(C(N)=O)cn(-c5ccc6c(c5)CCC6)c4n3)c2)CC1` [Cpd 23, 8-Indan-5-yl-2-[3-(4-methyl-piperazin-1-ylmethyl)-phenylamino]-5-oxo-5,8-dihydro-pyrido[2,3-d]pyrimidine-6-carboxylic acid amide], the figures for the IC50 at CSF-1R and on c-fms were 1.5 nM and 14 nM, respectively.
Taken in the same sequence, the figures for `CNC(=O)c1cn(-c2ccc3c(c2)CCC3)c2nc(Nc3ccc(CCN4CCOCC4)cc3)ncc2c1=O` [Cpd 28, 8-Indan-5-yl-2-[4-(2-morpholin-4-yl-ethyl)-phenylamino]-5-oxo-5,8-dihydro-pyrido[2,3-d]pyrimidine-6-carboxylic acid methyl amide] were 1.6 nM and 30 nM.
`CC1CN(c2ccc(Nc3ncc4c(=O)c(C(N)=O)cn(-c5ccc6c(c5)CCC6)c4n3)cc2)CC(C)N1` (stereo not drawn) [Cpd 43, 2-[4-(3,5-Dimethyl-piperazin-1-yl)-phenylamino]-8-indan-5-yl-5-oxo-5,8-dihydro-pyrido[2,3-d]pyrimidine-6-carboxylic acid amide]: at CSF-1R, the IC50 came to 0.58 nM.
Regarding `CNC(=O)c1cn(-c2ccc3c(c2)CCC3)c2nc(Nc3ccc(N4CC(C)NC(C)C4)cc3)ncc2c1=O` (stereo not drawn) [Cpd 44, 2-[4-(3,5-Dimethyl-piperazin-1-yl)-phenylamino]-8-indan-5-yl-5-oxo-5,8-dihydro-pyrido[2,3-d]pyrimidine-6-carboxylic acid methyl amide], the IC50 at CSF-1R worked out at 0.53 nM; on c-fms, 8 nM.
On the same counts, the results for `CNC(=O)c1cn(-c2ccc3c(c2)CCC3)c2nc(Nc3ccc(CCN4CCN(C)CC4)cc3)ncc2c1=O` [Cpd 47, 8-Indan-5-yl-2-{4-[2-(4-methyl-piperazin-1-yl)-ethyl]-phenylamino}-5-oxo-5,8-dihydro-pyrido[2,3-d]pyrimidine-6-carboxylic acid methyl amide] are 1.3 nM and 15 nM.
Taken in the same sequence, the figures for `NC(=O)c1cn(-c2ccc3c(c2)CCC3)c2nc(Nc3ccc(C4CCNCC4)cc3)ncc2c1=O` [Cpd 49, 8-Indan-5-yl-5-oxo-2-(4-piperidin-4-yl-phenylamino)-5,8-dihydro-pyrido[2,3-d]pyrimidine-6-carboxylic acid amide] were 0.49 nM and 8 nM.
Taken in the same sequence, the figures for `CNC(=O)c1cn(-c2ccc3c(c2)CCC3)c2nc(Nc3ccc(C4CCNCC4)cc3)ncc2c1=O` [Cpd 50, 8-Indan-5-yl-5-oxo-2-(4-piperidin-4-yl-phenylamino)-5,8-dihydro-pyrido[2,3-d]pyrimidine-6-carboxylic acid methyl amide] were 0.97 nM and 15 nM.
Consider `CN1CCN(CC(=O)N2CCC(c3ccc(Nc4ncc5c(=O)c(C(N)=O)cn(-c6ccc7c(c6)CCC7)c5n4)cc3)CC2)CC1` [Cpd 72, 8-Indan-5-yl-2-(4-{1-[2-(4-methyl-piperazin-1-yl)-acetyl]-piperidin-4-yl}-phenylamino)-5-oxo-5,8-dihydro-pyrido[2,3-d]pyrimidine-6-carboxylic acid amide], for which the IC50 on c-fms was 4100 nM.
Consider `CN1CCN(CC(=O)N2CCC(c3cccc(Nc4ncc5c(=O)c(C(N)=O)cn(-c6ccc7c(c6)CCC7)c5n4)c3)CC2)CC1` [Cpd 73, 8-Indan-5-yl-2-(3-{1-[2-(4-methyl-piperazin-1-yl)-acetyl]-piperidin-4-yl}-phenylamino)-5-oxo-5,8-dihydro-pyrido[2,3-d]pyrimidine-6-carboxylic acid amide], for which the IC50 at c-fms is over 1000 nM.
The same measure, in the same setting: with `CN(C)Cc1cccc(Nc2ncc3c(=O)c(C(N)=O)cn(-c4ccc5c(c4)CCC5)c3n2)c1` [Cpd 76, 2-(3-Dimethylaminomethyl-phenylamino)-8-indan-5-yl-5-oxo-5,8-dihydro-pyrido[2,3-d]pyrimidine-6-carboxylic acid amide] the figure was 18 nM.
Still for that read-out and setting: with `CNC(=O)c1cn(-c2ccc3c(c2)CCC3)c2nc(Nc3cccc(CN(C)C)c3)ncc2c1=O` [Cpd 77, 2-(3-Dimethylaminomethyl-phenylamino)-8-indan-5-yl-5-oxo-5,8-dihydro-pyrido[2,3-d]pyrimidine-6-carboxylic acid methylamide] the figure was 150 nM.
Same read-out and setting: the same measure for `CCNC(=O)c1cn(-c2ccc3c(c2)CCC3)c2nc(Nc3cccc(CN(C)C)c3)ncc2c1=O` [Cpd 78, 2-(3-Dimethylaminomethyl-phenylamino)-8-indan-5-yl-5-oxo-5,8-dihydro-pyrido[2,3-d]pyrimidine-6-carboxylic acid ethylamide]: 140 nM; for `CN(C)C(=O)c1cccc(Nc2ncc3c(=O)c(C(N)=O)cn(-c4ccc5c(c4)CCC5)c3n2)c1` [Cpd 79, 2-(3-Dimethylcarbamoyl-phenylamino)-8-indan-5-yl-5-oxo-5,8-dihydro-pyrido[2,3-d]pyrimidine-6-carboxylic acid amide]: 62 nM.
For the molecule `CNC(=O)c1cn(-c2ccc3c(c2)CCC3)c2nc(Nc3cccc(C(=O)N(C)C)c3)ncc2c1=O` [Cpd 80, 2-(3-Dimethylcarbamoyl-phenylamino)-8-indan-5-yl-5-oxo-5,8-dihydro-pyrido[2,3-d]pyrimidine-6-carboxylic acid methylamide], the IC50 at c-fms was 74 nM.
Consider `CCNC(=O)c1cn(-c2ccc3c(c2)CCC3)c2nc(Nc3cccc(C(=O)N(C)C)c3)ncc2c1=O` [Cpd 81, 2-(3-Dimethylcarbamoyl-phenylamino)-8-indan-5-yl-5-oxo-5,8-dihydro-pyrido[2,3-d]pyrimidine-6-carboxylic acid ethylamide], for which the IC50 on c-fms came out at 110 nM.
The same measure, in the same setting: with `CN1CCN(c2ccc(Nc3ncc4c(=O)c(C(N)=O)cn(C5CC6CCC5C6)c4n3)cc2)CC1` (stereo not drawn) [Cpd 82, 8-Bicyclo[2.2.1]hept-2-yl-2-[4-(4-methyl-piperazin-1-yl)-phenylamino]-5-oxo-5,8-dihydro-pyrido[2,3-d]pyrimidine-6-carboxylic acid amide] the figure was 81 nM; with `CCNC(=O)c1cn(C2CC3CCC2C3)c2nc(Nc3ccc(N4CCN(C)CC4)cc3)ncc2c1=O` (stereo not drawn) [Cpd 83, 8-Bicyclo[2.2.1]hept-2-yl-2-[4-(4-methyl-piperazin-1-yl)-phenylamino]-5-oxo-5,8-dihydro-pyrido[2,3-d]pyrimidine-6-carboxylic acid ethylamide], 300 nM.
On to `CCNC(=O)c1cn(-c2ccc3c(c2)CCC3)c2nc(Nc3ccc(CN4CCN(C)CC4)cc3)ncc2c1=O` [Cpd 84, 8-Indan-5-yl-2-[4-(4-methyl-piperazin-1-ylmethyl)-phenylamino]-5-oxo-5,8-dihydro-pyrido[2,3-d]pyrimidine-6-carboxylic acid ethylamide], for which the IC50 at c-fms was 32 nM.
Still for that read-out and setting: the same measure for `CNC(=O)c1cn(Cc2ccccc2)c2nc(Nc3ccc(N4CCN(C)CC4)cc3)ncc2c1=O` [Cpd 85, 8-Benzyl-2-[4-(4-methyl-piperazin-1-yl)-phenylamino]-5-oxo-5,8-dihydro-pyrido[2,3-d]pyrimidine-6-carboxylic acid methylamide]: 420 nM.

What is called IC50 is the concentration needed to halve the response being measured.
